Results taken from patent US11051515B2, “3-acyl-benzamides and their use as herbicides” (Bayer Aktiengesellschaft, priority 2017, dated 2021).

Key:
MATIN [1] = test: Post-emergence action against MATIN; format: in vivo, Matricaria inodora; conditions: post-emergence, dosage 80 g/ha, visual assessment about 3 weeks after treatment vs untreated controls
Method in brief: (§1)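 Post-emergence foliar spray on greenhouse plants at the one-leaf stage, using wettable-powder or emulsion-concentrate formulations in water (600 to […], plus 0.2% wetting agent). Damage scored by eye roughly 3 weeks later against untreated plants: 0% = like control, 100% = dead.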

AVEFA [2] = test: Pre-emergence action against AVEFA; format: in vivo, Avena fatua; conditions: dosage 320 g/ha, scored visually after 3 weeks vs untreated controls
Method in brief: (§2)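 Seeds sown in sandy loam in wood-fiber pots and covered with soil. Greenhouse growth; visual damage scored after 3 weeks versus untreated controls (100% = dead, 0% = like control).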

SETVI [3] = test: Post-emergence action against SETVI; format: in vivo, Setaria viridis; conditions: post-emergence, dosage 80 g/ha, visual assessment about 3 weeks after treatment vs untreated controls
Method in brief: as §1

VIOTR [4] = test: Pre-emergence action against VIOTR; format: in vivo, Viola tricolor; conditions: Dosage 320 g/ha, pre-emergence
Method in brief: as §2

VIOTR [5] = test: Post-emergence action against VIOTR; format: in vivo, Viola tricolor; conditions: post-emergence, dosage 80 g/ha
Method in brief: as §1

MATIN [6] = test: Pre-emergence action against MATIN; format: in vivo, Matricaria inodora; conditions: Dosage 320 g/ha, pre-emergence
Method in brief: as §2

VERPE [7] = test: Post-emergence action against VERPE; format: in vivo, Veronica persica; conditions: dosage 80 g/ha
Method in brief: as §1

LOLMU [8] = test: Pre-emergence action against LOLMU; format: in vivo, Lolium multiflorum; conditions: dosage 320 g/ha, scored visually after 3 weeks vs untreated controls
Method in brief: as §2

ALOMY [9] = test: Post-emergence action against ALOMY; format: in vivo, Alopecurus myosuroides; conditions: Dosage 80 g/ha, post-emergence
Method in brief: as §1

AMARE [10] = test: Post-emergence action against AMARE; format: in vivo, Amaranthus retroflexus; conditions: post-emergence, dosage 80 g/ha, visual assessment about 3 weeks after treatment vs untreated controls
Method in brief: as §1

AVEFA [11] = test: Post-emergence action against AVEFA; format: in vivo, Avena fatua; conditions: post-emergence, dosage 80 g/ha, visual assessment about 3 weeks after treatment vs untreated controls
Method in brief: as §1

POLCO [12] = test: Post-emergence action against POLCO; format: in vivo, Polygonum convolvulus; conditions: post-emergence, dosage 80 g/ha
Method in brief: as §1

ABUTH [13] = test: Pre-emergence action against ABUTH; format: in vivo, Abutilon theophrasti; conditions: pre-emergence, dosage 320 g/ha, scored visually after 3 weeks vs untreated controls
Method in brief: as §2

STEME [14] = test: Pre-emergence action against STEME; format: in vivo, Stellaria media; conditions: Dosage 320 g/ha, pre-emergence
Method in brief: as §2

PHBPU [15] = test: Post-emergence action against PHBPU; format: in vivo, Pharbitis purpurea; conditions: post-emergence, dosage 80 g/ha
Method in brief: as §1

ALOMY [16] = test: Pre-emergence action against ALOMY; format: in vivo, Alopecurus myosuroides; conditions: dosage 320 g/ha, pre-emergence, scored visually after 3 weeks vs untreated controls, 100% = plants have died, 0% = like control plants
Method in brief: as §2

AMARE [17] = test: Pre-emergence action against AMARE; format: in vivo, Amaranthus retroflexus; conditions: pre-emergence, dosage 320 g/ha, scored visually after 3 weeks vs untreated controls
Method in brief: as §2

ECHCG [18] = test: Post-emergence action against ECHCG; format: in vivo, Echinochloa crus-galli; conditions: post-emergence, dosage 80 g/ha, visual assessment about 3 weeks after treatment vs untreated controls
Method in brief: as §1

STEME [19] = test: Post-emergence action against STEME; format: in vivo, Stellaria media; conditions: Stellaria media, 504 h; post-emergence, dosage 80 g/ha
Method in brief: as §1

POLCO [20] = test: Pre-emergence action against POLCO; format: in vivo, Polygonum convolvulus; conditions: Fallopia convolvulus, 504 h; Dosage 320 g/ha, pre-emergence
Method in brief: as §2

LOLMU [21] = test: Post-emergence action against LOLMU; format: in vivo, Lolium multiflorum; conditions: dosage 80 g/ha, visual assessment about 3 weeks after treatment vs untreated controls
Protocol: Seeds of monocotyledonous and dicotyledonous weed and crop plants are laid out in sandy loam soil in wood-fiber pots, covered with soil and cultivated in a greenhouse under good growth conditions. 2 to 3 weeks after sowing, the test plants are treated at the one-leaf stage. The compounds of the invention, formulated in the form of wettable powders (WP) or as emulsion concentrates (EC), are then sprayed onto the green parts of the plants in the form of an aqueous suspension or emulsion at a water application rate equating to […], with addition of 0.2% wetting agent. After the test plants have been left to stand in the greenhouse under optimal growth conditions for about 3 weeks, the action of the preparations is assessed visually in comparison to untreated controls (herbicidal action in percent (%): 100% activity=the plants have died, 0% activity=like control plants). […] At the same time, inventive compounds leave Gramineae crops such as barley, wheat, rye, millet/Sorghum, corn or rice virtually undamaged when applied post-emergence, even at high active ingredient dosages. In addition, some substances are also harmless to dicotyledonous crops such as soya, cotton, oilseed rape, sugar beet or potatoes. Some of the compounds according to the invention have high selectivity and are therefore suitable for controlling unwanted vegetation in agricultural crops by the post-emergence method. The data of Tables B18 to B34 below illustrate, in an exemplary manner, the […] herbicidal action of the compounds according to the invention, the herbicidal activity being stated in percent.

ABUTH [22] = test: Post-emergence action against ABUTH; format: in vivo, Abutilon theophrasti; conditions: post-emergence, dosage 80 g/ha, visual assessment about 3 weeks after treatment vs untreated controls
Method in brief: as §1

CYPES = test: Pre-emergence action against CYPES; format: in vivo, Cyperus esculentus; conditions: pre-emergence, dosage 320 g/ha, scored visually after 3 weeks vs untreated controls
Method in brief: as §2

VERPE [23] = test: Pre-emergence action against VERPE; format: in vivo, Veronica persica; conditions: Dosage 320 g/ha, pre-emergence
Method in brief: as §2

SETVI [24] = test: Pre-emergence action against SETVI; format: in vivo, Setaria viridis; conditions: pre-emergence, dosage 320 g/ha, scored visually after 3 weeks vs untreated controls
Method in brief: as §2

ECHCG [25] = test: Pre-emergence action against ECHCG; format: in vivo, Echinochloa crus-galli; conditions: pre-emergence, dosage 320 g/ha, scored visually after 3 weeks vs untreated controls
Method in brief: as §2

PHBPU [26] = test: Pre-emergence action against PHBPU; format: in vivo, Pharbitis purpurea; conditions: Dosage 320 g/ha, pre-emergence
Method in brief: as §2

CSc1ccc(C(=O)Nc2nnnn2C)c(Cl)c1C(C)=O [1-121]
pest or weed control at 80 g/ha (MATIN [1]; Tripleurospermum inodorum, 504 h, read-out: Post-emergence action against MATIN (herbicidal action in percent)): 100% | pest or weed control at 320 g/ha (AVEFA [2]; Avena fatua, 504 h, read-out: Pre-emergence action against AVEFA (herbicidal activity)): 90% | pest or weed control at 80 g/ha (SETVI [3]; Setaria viridis, 504 h, read-out: Post-emergence action against SETVI (herbicidal action in percent)): 90% | pest or weed control at 320 g/ha (VIOTR [4]; Viola tricolor, 504 h): 100% | pest or weed control at 80 g/ha (VIOTR [5]; Viola tricolor, 504 h): 90% | pest or weed control at 320 g/ha (MATIN [6]; Tripleurospermum inodorum, 504 h): 100% | pest or weed control at 80 g/ha (VERPE [7]; Veronica persica, 504 h): 100% | pest or weed control at 320 g/ha (LOLMU [8]; Lolium multiflorum, 504 h, read-out: Pre-emergence action against LOLMU (herbicidal activity)): 90% | pest or weed control at 80 g/ha (ALOMY [9]; Alopecurus myosuroides, 504 h): 90% | pest or weed control at 80 g/ha (AMARE [10]; Amaranthus retroflexus, 504 h, read-out: Post-emergence action against AMARE (herbicidal action in percent)): 90% | pest or weed control at 80 g/ha (AVEFA [11]; Avena fatua, 504 h, read-out: Post-emergence action against AVEFA (herbicidal action in percent)): 90% | pest or weed control at 80 g/ha (POLCO [12]; Fallopia convolvulus, 504 h): 80% | pest or weed control at 320 g/ha (ABUTH [13]; Abutilon theophrasti, 504 h, read-out: Pre-emergence action against ABUTH (herbicidal activity)): 90% | pest or weed control at 320 g/ha (STEME [14]; Stellaria media, 504 h): 90% | pest or weed control at 80 g/ha (PHBPU [15]; Ipomoea purpurea, 504 h): 90% | pest or weed control at 320 g/ha (ALOMY [16]; Alopecurus myosuroides, 504 h, read-out: Pre-emergence action against ALOMY (herbicidal activity in percent)): 90% | pest or weed control at 320 g/ha (AMARE [17]; Amaranthus retroflexus, 504 h, read-out: Pre-emergence action against AMARE (herbicidal activity)): 100% | pest or weed control at 80 g/ha (ECHCG [18]; Echinochloa crus-galli, 504 h, read-out: Post-emergence action against ECHCG (herbicidal action in percent)): 90% | pest or weed control at 80 g/ha (STEME [19]): 100% | pest or weed control at 320 g/ha (POLCO [20]): 90% | pest or weed control at 80 g/ha (LOLMU [21]; Lolium multiflorum, 504 h, read-out: Post-emergence action against LOLMU (herbicidal action in percent)): 90% | pest or weed control at 80 g/ha (ABUTH [22]; Abutilon theophrasti, 504 h, read-out: Post-emergence action against ABUTH (herbicidal action in percent)): 90% | pest or weed control at 320 g/ha (CYPES; Cyperus esculentus, 504 h, read-out: Pre-emergence action against CYPES (herbicidal activity)): 90% | pest or weed control at 320 g/ha (VERPE [23]; Veronica persica, 504 h): 100% | pest or weed control at 320 g/ha (SETVI [24]; Setaria viridis, 504 h, read-out: SETVI (Table B8, pre-emergence herbicidal activity)): 100% | pest or weed control at 320 g/ha (ECHCG [25]; Echinochloa crus-galli, 504 h, read-out: Pre-emergence action against ECHCG (herbicidal activity)): 100%

CCn1nnnc1NC(=O)c1ccc(C(F)(F)F)c(C(=O)C2CC2)c1Cl [2-141]
Post-emergence action against MATIN (herbicidal action in percent) (MATIN [1]): 80% | Pre-emergence action against AVEFA (herbicidal activity) (AVEFA [2]): 100% | Post-emergence action against SETVI (herbicidal action in percent) (SETVI [3]): 90% | Pre-emergence action against VIOTR (VIOTR [4]): 100% | Post-emergence action against VIOTR (VIOTR [5]): 100 | Pre-emergence action against MATIN (MATIN [6]): 100% | Post-emergence action against VERPE (VERPE [7]): 80 | Pre-emergence action against LOLMU (herbicidal activity) (LOLMU [8]): 100% | Pre-emergence action against PHBPU (PHBPU [26]): 80% | Post-emergence action against ALOMY (ALOMY [9]): 90% | Post-emergence action against AMARE (herbicidal action in percent) (AMARE [10]): 90% | Post-emergence action against AVEFA (herbicidal action in percent) (AVEFA [11]): 90% | Post-emergence action against POLCO (POLCO [12]): 90 | Pre-emergence action against ABUTH (herbicidal activity) (ABUTH [13]): 100% | Pre-emergence action against STEME (STEME [14]): 90% | Post-emergence action against PHBPU (PHBPU [15]): 90 | Pre-emergence action against ALOMY (herbicidal activity in percent) (ALOMY [16]): 100% | Pre-emergence action against AMARE (herbicidal activity) (AMARE [17]): 100% | Post-emergence action against ECHCG (herbicidal action in percent) (ECHCG [18]): 90% | Post-emergence action against LOLMU (herbicidal action in percent) (LOLMU [21]): 90% | Post-emergence action against ABUTH (herbicidal action in percent) (ABUTH [22]): 90% | Pre-emergence action against CYPES (herbicidal activity) (CYPES): 90% | Pre-emergence action against VERPE (VERPE [23]): 100% | SETVI (Table B8, pre-emergence herbicidal activity) (SETVI [24]): 100% | Pre-emergence action against ECHCG (herbicidal activity) (ECHCG [25]): 100%
